Experimental findings from patent publication US20160002247A1, “8-SUBSTITUTED IMIDAZOPYRIMIDINONE DERIVATIVE HAVING AUTOTAXIN INHIBITORY ACTIVITY” (THE UNIVERSITY OF TOKYO, priority 2013, published 2016) are described below.

The assay has as its target T1, Human autotaxin enzyme (Homo sapiens, UniProt Q13822).
T1 construct: purchased R&D System
The assay is described as follows: Evaluation of autotaxin inhibitor, Method C (Test Example 3): 18:0 Lyso PC, choline assay, Resorufin fluorescence. The class given is biochemical. As to conditions: Assay Method C (Test Example 3), human autotaxin, 18:0 Lyso PC substrate; read-out: Inhibitory Activity (autotaxin enzyme inhibitory activity, IC50 class). The method, boiled down:
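Human autotaxin in Tris-HCl pH 7.5, 150 mM NaCl, 5 mM MgCl2, 0.05% Triton X-100 reacted 2 h at room temperature with 18:0 Lyso PC (200 μM solution added). Released choline detected via choline oxidase/peroxidase/Amplex-type reagent, resorufin fluorescence (ex 531/em 598 nm); inhibition vs no-compound and no-enzyme controls, concentration-response curve.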
The term IC50 denotes the concentration that gives 50% inhibition. Consider `CCCCCn1c(N2CCCC[C@H]2C(=O)NCC(=O)O)cc(=O)n2cc(-c3ccc(Cl)cc3)nc12` [Compound 633], for which the IC50 fell in the range of 10 to 100 nM.

With `CCCCCn1c(N2CCC[C@@H]2CC(=O)NCC(=O)O)cc(=O)n2cc(-c3ccc(Cl)cc3)nc12` [Compound 634], the IC50 is 100 to 1000 nM.

Take `CCCCCn1c(N2CCC[C@@]2(C)C(=O)NCC(=O)O)cc(=O)n2cc(-c3ccc(Cl)cc3)nc12` [Compound 635]: the IC50 was above 1000 nM.

In the case of `CCCCCn1c(N2CCC[C@@H](C(=O)NCC(=O)O)C2)cc(=O)n2cc(-c3ccc(Cl)cc3)nc12` [Compound 636], the IC50 was 10 to 100 nM.

As for `CCCCCn1c(NC2(C(=O)NCC(=O)O)CC2)cc(=O)n2cc(-c3ccc(Cl)cc3)nc12` [Compound 637], the IC50 is above 1000 nM.

In the case of `CCCCCn1c(N2CCCC[C@@H]2C(=O)NCC(=O)O)cc(=O)n2cc(-c3ccc(Cl)cc3)nc12` [Compound 638], the IC50 lay within 100 to 1000 nM.

For the compound `CCCCCn1c(N2CCN(C(=O)OC(C)(C)C)C(C(=O)O)C2)cc(=O)n2cc(-c3ccc(Cl)cc3)nc12` (stereo not shown) [Compound 639], the IC50 was 100 to 1000 nM.

For the compound `CCCCCn1c(N2CCN(C(=O)OC(C)(C)C)C[C@@H]2C(=O)O)cc(=O)n2cc(-c3ccc(Cl)cc3)nc12` [Compound 640], the IC50 was above 1000 nM.

For the compound `CCCCCn1c(N2CCN(C(=O)OC(C)(C)C)C[C@H]2C(=O)O)cc(=O)n2cc(-c3ccc(Cl)cc3)nc12` [Compound 641], the IC50 was above 1000 nM.

Consider `CCCCCn1c(N2CCC[C@H]2C(=O)NCCCN2CCCC2=O)cc(=O)n2cc(-c3ccc(Cl)cc3)nc12` [Compound 642], for which the IC50 lay within 10 to 100 nM.

For the compound `CCCCCn1c(N2CCC[C@H]2C(=O)NCCN2CCCCC2)cc(=O)n2cc(-c3ccc(Cl)cc3)nc12` [Compound 643], the IC50 fell in the range of 100 to 1000 nM.

With `CCCCCn1c(N2CCC[C@H]2C(=O)NCCN2CCOCC2)cc(=O)n2cc(-c3ccc(Cl)cc3)nc12` [Compound 644], the 50% inhibitory concentration (IC50) lay in the range of 100 to 1000 nM.

With `CCCCCn1c(N2CCC[C@H]2C(=O)NCCN(C)C)cc(=O)n2cc(-c3ccc(Cl)cc3)nc12` [Compound 645], the half-maximal inhibitory concentration (IC50) was in the range of 100 to 1000 nM.

For `CCCCCn1c(N2CCC[C@H]2C(=O)NCCCN(C)C)cc(=O)n2cc(-c3ccc(Cl)cc3)nc12` [Compound 646], the IC50 is above 1000 nM.

Regarding `CCCCCn1c(N2CCC[C@H]2C(=O)NCCN2CCCC2)cc(=O)n2cc(-c3ccc(Cl)cc3)nc12` [Compound 647], the IC50 was above 1000 nM.

For the compound `CCCCCn1c(N2CCC[C@H]2C(=O)NCCCN2CCCC2)cc(=O)n2cc(-c3ccc(Cl)cc3)nc12` [Compound 648], the IC50 was above 1000 nM.

For `CCCCCn1c(N2CCC[C@H]2C(=O)NCCCN2CCN(C)CC2)cc(=O)n2cc(-c3ccc(Cl)cc3)nc12` [Compound 649], the half-maximal inhibitory concentration (IC50) lay in the range of 10 to 100 nM.

Turning to `CCCCCn1c(N2CCC[C@H]2C(=O)NCC2CCN(C)C2)cc(=O)n2cc(-c3ccc(Cl)cc3)nc12` (stereo partly shown) [Compound 650], the IC50 is above 1000 nM.

As to `CCCCCn1c(N2CCC[C@H]2C(=O)NCCCCCCN(C)C)cc(=O)n2cc(-c3ccc(Cl)cc3)nc12` [Compound 651], the IC50 was in the range of 10 to 100 nM.

Consider `CCCCCn1c(N2CCC[C@H]2C(=O)NCCCCN2CCN(C)CC2)cc(=O)n2cc(-c3ccc(Cl)cc3)nc12` [Compound 652], for which the IC50 was in the range of 10 to 100 nM.

On to `CCCCCn1c(N2CCC[C@H]2C(=O)NCCCCCN(C)C)cc(=O)n2cc(-c3ccc(Cl)cc3)nc12` [Compound 653], for which the IC50 was in the range of 100 to 1000 nM.

Take `CCCCCn1c(N2CCC[C@H]2C(=O)NCCCCCN2CCOCC2)cc(=O)n2cc(-c3ccc(Cl)cc3)nc12` [Compound 654]: the IC50 is below 10 nM.

Take `CCCCCn1c(N2CCC[C@H]2C(=O)NCCCN(C)C(=O)OC(C)(C)C)cc(=O)n2cc(-c3ccc(Cl)cc3)nc12` [Compound 655]: the IC50 fell in the range of 100 to 1000 nM.

On to `CCCCCn1c(N2CCC[C@H]2C(=O)NCCCCN(C)C)cc(=O)n2cc(-c3ccc(Cl)cc3)nc12` [Compound 656], for which the IC50 lay within 100 to 1000 nM.

Consider `CCCCCn1c(N2CCC[C@H]2C(=O)NCCCCN2CC(C)OC(C)C2)cc(=O)n2cc(-c3ccc(Cl)cc3)nc12` (stereo partly shown) [Compound 657], for which the IC50 is below 10 nM.

With `CCCCCn1c(N2CCNC(C(=O)O)C2)cc(=O)n2cc(-c3ccc(Cl)cc3)nc12` (stereo not shown) [Compound 658], the IC50 was in the range of 10 to 100 nM.

On to `CCCCCn1c(N2CCNC[C@@H]2C(=O)O)cc(=O)n2cc(-c3ccc(Cl)cc3)nc12` [Compound 659], for which the IC50 was above 1000 nM.

For `CCCCCn1c(N2CCNC[C@H]2C(=O)O)cc(=O)n2cc(-c3ccc(Cl)cc3)nc12` [Compound 660], the IC50 was above 1000 nM.

Regarding `CCCCCn1c(N2CCC[C@H]2C(=O)NCCCNC)cc(=O)n2cc(-c3ccc(Cl)cc3)nc12` [Compound 661], the IC50 was above 1000 nM.

For the compound `CCCCCn1c(N2CCNC(C(=O)NCCC(=O)O)C2)cc(=O)n2cc(-c3ccc(Cl)cc3)nc12` (stereo not shown) [Compound 662], the IC50 lay within 10 to 100 nM.

`CCCCCn1c(N2CCNC[C@@H]2C(=O)NCCC(=O)O)cc(=O)n2cc(-c3ccc(Cl)cc3)nc12` [Compound 663]: the IC50 lay within 100 to 1000 nM.

`CCCCCn1c(N2CCNC[C@H]2C(=O)NCCC(=O)O)cc(=O)n2cc(-c3ccc(Cl)cc3)nc12` [Compound 664]: the IC50 is 10 to 100 nM.

Take `CCCCCn1c(N2CCNC(C(=O)NCC(=O)O)C2)cc(=O)n2cc(-c3ccc(Cl)cc3)nc12` (stereo not shown) [Compound 665]: the IC50 was in the range of 10 to 100 nM.

Take `CCCCCn1c(N2CCNC[C@@H]2C(=O)NCC(=O)O)cc(=O)n2cc(-c3ccc(Cl)cc3)nc12` [Compound 666]: the IC50 lay within 10 to 100 nM.

As for `CCCCCn1c(N2CCNC[C@H]2C(=O)NCC(=O)O)cc(=O)n2cc(-c3ccc(Cl)cc3)nc12` [Compound 667], the IC50 fell in the range of 10 to 100 nM.

As to `CCCCCn1c(N2CCC[C@H]2C(=O)NCCOCCN2C(=O)C=CC2=O)cc(=O)n2cc(-c3ccc(Cl)cc3)nc12` [Compound 668], the IC50 was 100 to 1000 nM.

For the compound `CCCCCn1c(N2CC[C@@H](C(=O)O)C2)cc(=O)n2cc(-c3ccc(Cl)cc3)nc12` [Compound 669], the IC50 was 10 to 100 nM.

Consider `CCCCCn1c(N2CC[C@H](C(=O)O)C2)cc(=O)n2cc(-c3ccc(Cl)cc3)nc12` [Compound 670], for which the IC50 lay in the range of 10 to 100 nM.

As for `CCCCCn1c(N2CCC[C@H](C(=O)OCC)C2)cc(=O)n2cc(-c3ccc(Cl)cc3)nc12` [Compound 671], the IC50 lay within 100 to 1000 nM.

As to `CCCCCn1c(N2CCC[C@H]2C(=O)NC(CO)C(=O)O)cc(=O)n2cc(-c3ccc(Cl)cc3)nc12` (stereo partly shown) [Compound 672], the IC50 was 10 to 100 nM.

With `CCCCCn1c(N2CCC[C@H]2C(=O)N2CCC[C@@H](C(=O)O)C2)cc(=O)n2cc(-c3ccc(Cl)cc3)nc12` [Compound 673], the IC50 is below 10 nM.

In the case of `CCCCCn1c(N2CCC[C@H]2C(=O)NC(C)(C)C(=O)O)cc(=O)n2cc(-c3ccc(Cl)cc3)nc12` [Compound 674], the IC50 was below 10 nM.

On to `CCCCCn1c(N2CCC[C@H]2C(=O)N[C@@H](C)C(=O)O)cc(=O)n2cc(-c3ccc(Cl)cc3)nc12` [Compound 675], for which the IC50 was below 10 nM.

For `CCCCCn1c(N2CCC[C@H]2C(=O)NC(C)(C)C(C)C(=O)O)cc(=O)n2cc(-c3ccc(Cl)cc3)nc12` (stereo partly shown) [Compound 676], the IC50 was below 10 nM.

Turning to `CCCCCn1c(N2CCC[C@H]2C(=O)N2CCC[C@H](C(=O)O)C2)cc(=O)n2cc(-c3ccc(Cl)cc3)nc12` [Compound 677], the IC50 is below 10 nM.

Regarding `CCCCCn1c(N2CCC[C@H]2C(=O)N[C@H](C)C(=O)O)cc(=O)n2cc(-c3ccc(Cl)cc3)nc12` [Compound 678], the IC50 was 10 to 100 nM.
